Measured values: patent US20090227607A1, “DEAZAPURINES USEFUL AS INHIBITORS OF JANUS KINASES” (priority 2006, published 2009)

target: JAK-2 enzyme (Homo sapiens, UniProt O60674); experiment: JAK2 Inhibition Assay; type: biochemical; conditions: 15 μM poly(Glu)4Tyr, 12 μM ATP, 25° C.
Experimental: (§1) Compounds were screened for their ability to inhibit JAK3 using the assay shown below. Reactions were carried out in a kinase buffer containing 100 mM HEPES (pH 7.4), 1 mM DTT, 10 mM MgCl2, 25 mM NaCl, and 0.01% BSA. Substrate concentrations in the assay were 5 μM ATP (200 uCi/μmole ATP) and 1 μM poly(Glu)4Tyr. Reactions were carried out at 25° C. and 1 nM JAK3.
(§2) To each well of a 96 well polycarbonate plate was added 1.5 μl of a candidate JAK3 inhibitor along with 50 μl of kinase buffer containing 2 μM poly(Glu)4Tyr and […]. This was then mixed and […] of kinase buffer containing 2 nM JAK3 enzyme was added to start the reaction. After 20 minutes at room temperature (25° C.), the reaction was stopped with 50 μl of 20% trichloroacetic acid (TCA) that also contained 0.4 mM ATP. The entire contents of each well were then transferred to a 96 well glass fiber filter plate using a TomTek Cell Harvester. After washing, 60 μl of scintillation fluid was added and ^33P incorporation detected on a Perkin Elmer TopCount.
The assays were as described above in Example 36 except that JAK-2 enzyme was used, the final poly(Glu)4Tyr concentration was 15 μM, and final ATP concentration was 12 μM.
(§3) Tables 5 and 6 depict enzyme inhibition data (Ki) for certain exemplary compounds. Compound numbers in Tables 5 and 6 correspond to those compounds depicted in Tables 1 and 2, respectively.

Chain of JAK-2 enzyme (O60674 whole entry, species assumed): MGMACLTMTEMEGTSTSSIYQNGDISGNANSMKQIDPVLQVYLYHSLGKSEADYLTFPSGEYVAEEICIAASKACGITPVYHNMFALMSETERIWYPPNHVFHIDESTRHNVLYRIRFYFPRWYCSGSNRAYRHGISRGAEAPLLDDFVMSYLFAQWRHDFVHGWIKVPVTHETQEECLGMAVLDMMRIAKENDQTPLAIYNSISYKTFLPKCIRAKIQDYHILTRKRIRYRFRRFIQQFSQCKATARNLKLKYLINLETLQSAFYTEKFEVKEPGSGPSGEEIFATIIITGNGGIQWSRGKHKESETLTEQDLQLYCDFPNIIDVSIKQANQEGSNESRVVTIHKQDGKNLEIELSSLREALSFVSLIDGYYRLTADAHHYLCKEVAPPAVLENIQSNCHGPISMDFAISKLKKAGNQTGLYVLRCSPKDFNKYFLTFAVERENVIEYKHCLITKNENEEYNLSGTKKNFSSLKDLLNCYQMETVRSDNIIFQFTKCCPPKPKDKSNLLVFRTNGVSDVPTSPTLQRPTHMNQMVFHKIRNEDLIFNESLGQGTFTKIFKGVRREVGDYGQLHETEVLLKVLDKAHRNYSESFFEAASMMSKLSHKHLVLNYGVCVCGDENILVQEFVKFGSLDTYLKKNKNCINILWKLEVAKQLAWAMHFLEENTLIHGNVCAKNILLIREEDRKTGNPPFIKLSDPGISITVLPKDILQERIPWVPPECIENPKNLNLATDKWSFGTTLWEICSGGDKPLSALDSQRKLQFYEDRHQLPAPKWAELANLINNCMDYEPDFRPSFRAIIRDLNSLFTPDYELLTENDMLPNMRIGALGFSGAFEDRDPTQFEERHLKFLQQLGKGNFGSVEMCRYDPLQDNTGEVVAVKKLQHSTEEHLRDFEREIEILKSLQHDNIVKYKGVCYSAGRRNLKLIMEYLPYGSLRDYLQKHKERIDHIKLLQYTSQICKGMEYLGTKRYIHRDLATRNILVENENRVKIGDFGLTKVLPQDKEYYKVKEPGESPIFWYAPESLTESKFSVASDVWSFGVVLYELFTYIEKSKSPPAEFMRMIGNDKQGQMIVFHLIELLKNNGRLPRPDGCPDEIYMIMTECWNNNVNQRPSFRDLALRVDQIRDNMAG

Ki	SMILES
100 to 500 nM	CSCCNC(=O)C(C)n1cc(-c2ncnc3[nH]ccc23)cn1 (stereo not drawn) [Compound 84]
100 to 500 nM	CC(C(=O)NCc1ccccc1)n1cc(-c2ncnc3[nH]ccc23)cn1 (stereo not drawn) [Compound 86]
100 to 500 nM	CCN(CC)C(=O)C(C)n1cc(-c2ncnc3[nH]ccc23)cn1 (stereo not drawn) [Compound 88]
< 100 nM	CC(C(=O)NCc1cccn1C)n1cc(-c2ncnc3[nH]ccc23)cn1 (stereo not drawn) [Compound 89]
100 to 500 nM	CCCNC(=O)C(C)n1cc(-c2ncnc3[nH]ccc23)cn1 (stereo not drawn) [Compound 90]
< 100 nM	O=C(Nc1nc(-c2ncnc3[nH]ccc23)cs1)C(O)c1ccccc1 (stereo not drawn) [Compound 101]
< 100 nM	CCCn1cc(-c2ncnc3[nH]ccc23)cn1 [Compound 106]
< 100 nM	CC(C)CCn1cc(-c2ncnc3[nH]ccc23)cn1 [Compound 107]
< 100 nM	O=C(c1cc(-c2ncnc3[nH]ccc23)c[nH]1)N(CCC(F)(F)F)Cc1ccccc1 [Compound 108]
< 100 nM	O=C(c1cc(-c2ncnc3[nH]ccc23)c[nH]1)N(CC1CC1)CC(F)(F)F [Compound 109]
< 100 nM	N#CCN(Cc1ccccc1)C(=O)c1cc(-c2ncnc3[nH]ccc23)c[nH]1 [Compound 111]
< 100 nM	N#CCN(Cc1ccc(F)cc1)C(=O)c1cc(-c2ncnc3[nH]ccc23)c[nH]1 [Compound 112]

The remaining lines, values behind:

SMILES	Ki
CC(C)OCCNC(=O)C(C)n1cc(-c2ncnc3[nH]ccc23)cn1 (stereo not drawn) [Compound 85]	500 to 5000 nM
CC(C(=O)N1CCCC1)n1cc(-c2ncnc3[nH]ccc23)cn1 (stereo not drawn) [Compound 87]	100 to 500 nM
CC(C(=O)NCC(F)(F)F)n1cc(-c2ncnc3[nH]ccc23)cn1 (stereo not drawn) [Compound 91]	< 100 nM
CCCCC(CC)n1cc(-c2ncnc3[nH]ccc23)cn1 (stereo not drawn) [Compound 92]	< 100 nM
CCCCC(C)n1cc(-c2ncnc3[nH]ccc23)cn1 (stereo not drawn) [Compound 93]	< 100 nM
CCCC(CC)n1cc(-c2ncnc3[nH]ccc23)cn1 (stereo not drawn) [Compound 94, 4-(1-(hexan-3-yl)-1H-pyrazol-4-yl)-7H-pyrrolo[2,3-d]pyrimidine]	< 100 nM
O=C(CCC1CC1)Nc1nc(-c2ncnc3[nH]ccc23)cs1 [Compound 96]	< 100 nM
COC(C)C(=O)Nc1nc(-c2ncnc3[nH]ccc23)cs1 (stereo not drawn) [Compound 97]	< 100 nM
CCC(C)CC(=O)Nc1nc(-c2ncnc3[nH]ccc23)cs1 (stereo not drawn) [Compound 98]	< 100 nM
O=C(CCC(F)(F)F)Nc1nc(-c2ncnc3[nH]ccc23)cs1 [Compound 99]	< 100 nM
O=C(Nc1nc(-c2ncnc3[nH]ccc23)cs1)C(O)C(F)(F)F (stereo not drawn) [Compound 100]	< 100 nM
CC(CC(F)(F)F)C(=O)Nc1nc(-c2ncnc3[nH]ccc23)cs1 (stereo not drawn) [Compound 102]	< 100 nM
CCCN(C(=O)CC(C)C)c1nc(-c2ncnc3[nH]ccc23)cs1 [Compound 103, 3-Methyl-N-propyl-N-[4-(7H-pyrrolo[2,3-d]pyrimidin-4-yl)-thiazol-2-yl]-butyramide]	< 100 nM
CCN(C(=O)CC(C)C)c1nc(-c2ncnc3[nH]ccc23)cs1 [Compound 104]	< 100 nM
CC(C)CC(=O)N(C)c1nc(-c2ncnc3[nH]ccc23)cs1 [Compound 105]	< 100 nM

target: T1, JAK3 (Homo sapiens, UniProt P52333); experiment: JAK3 Inhibition Assay; type: biochemical; conditions: 1 μM poly(Glu)4Tyr, 5 μM ATP, 1 nM JAK3, 25° C.; read-out: JAK3 enzyme inhibition data (Ki)
T1 sequence (P52333 1-1124): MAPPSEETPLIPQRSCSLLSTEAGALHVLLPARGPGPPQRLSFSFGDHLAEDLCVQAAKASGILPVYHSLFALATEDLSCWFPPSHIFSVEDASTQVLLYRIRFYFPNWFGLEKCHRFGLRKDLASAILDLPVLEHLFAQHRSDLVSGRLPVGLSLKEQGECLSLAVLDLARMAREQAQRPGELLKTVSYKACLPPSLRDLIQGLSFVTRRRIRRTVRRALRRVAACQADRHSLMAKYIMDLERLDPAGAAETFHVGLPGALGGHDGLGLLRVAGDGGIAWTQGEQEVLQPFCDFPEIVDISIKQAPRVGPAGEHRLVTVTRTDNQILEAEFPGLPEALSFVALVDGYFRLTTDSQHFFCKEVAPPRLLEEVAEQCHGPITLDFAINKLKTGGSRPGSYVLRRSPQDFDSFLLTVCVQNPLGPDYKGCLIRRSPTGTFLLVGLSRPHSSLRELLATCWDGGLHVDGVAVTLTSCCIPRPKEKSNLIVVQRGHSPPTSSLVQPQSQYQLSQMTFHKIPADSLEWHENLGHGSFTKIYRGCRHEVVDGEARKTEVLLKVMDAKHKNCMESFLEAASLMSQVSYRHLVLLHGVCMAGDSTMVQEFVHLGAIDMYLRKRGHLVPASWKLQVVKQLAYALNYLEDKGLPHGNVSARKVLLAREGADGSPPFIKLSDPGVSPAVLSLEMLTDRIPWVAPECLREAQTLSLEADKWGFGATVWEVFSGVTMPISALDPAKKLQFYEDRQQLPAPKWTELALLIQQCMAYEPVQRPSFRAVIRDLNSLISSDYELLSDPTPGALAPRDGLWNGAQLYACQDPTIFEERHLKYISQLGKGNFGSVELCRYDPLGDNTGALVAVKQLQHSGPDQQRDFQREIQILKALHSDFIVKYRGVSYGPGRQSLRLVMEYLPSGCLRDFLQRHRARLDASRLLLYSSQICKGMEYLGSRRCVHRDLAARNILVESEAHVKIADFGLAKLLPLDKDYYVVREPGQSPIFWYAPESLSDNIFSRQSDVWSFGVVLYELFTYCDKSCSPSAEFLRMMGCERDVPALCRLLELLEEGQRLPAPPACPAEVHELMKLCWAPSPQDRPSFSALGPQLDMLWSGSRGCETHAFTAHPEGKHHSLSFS
Experimental: as §1, §2, §3

Ki	SMILES
100 to 500 nM	CSCCNC(=O)C(C)n1cc(-c2ncnc3[nH]ccc23)cn1 (stereo not drawn) [Compound 84]
100 to 500 nM	CC(C(=O)NCc1ccccc1)n1cc(-c2ncnc3[nH]ccc23)cn1 (stereo not drawn) [Compound 86]
< 100 nM	CCN(CC)C(=O)C(C)n1cc(-c2ncnc3[nH]ccc23)cn1 (stereo not drawn) [Compound 88]
100 to 500 nM	CC(C(=O)NCc1cccn1C)n1cc(-c2ncnc3[nH]ccc23)cn1 (stereo not drawn) [Compound 89]
< 100 nM	CCCNC(=O)C(C)n1cc(-c2ncnc3[nH]ccc23)cn1 (stereo not drawn) [Compound 90]
< 100 nM	O=C(Nc1nc(-c2ncnc3[nH]ccc23)cs1)C(O)c1ccccc1 (stereo not drawn) [Compound 101]
100 to 500 nM	CCCn1cc(-c2ncnc3[nH]ccc23)cn1 [Compound 106]
100 to 500 nM	CC(C)CCn1cc(-c2ncnc3[nH]ccc23)cn1 [Compound 107]
< 100 nM	O=C(c1cc(-c2ncnc3[nH]ccc23)c[nH]1)N(CCC(F)(F)F)Cc1ccccc1 [Compound 108]
< 100 nM	O=C(c1cc(-c2ncnc3[nH]ccc23)c[nH]1)N(CC1CC1)CC(F)(F)F [Compound 109]
< 100 nM	N#CCN(Cc1ccccc1)C(=O)c1cc(-c2ncnc3[nH]ccc23)c[nH]1 [Compound 111]
< 100 nM	N#CCN(Cc1ccc(F)cc1)C(=O)c1cc(-c2ncnc3[nH]ccc23)c[nH]1 [Compound 112]

Further lines, the compound ahead of its results:

SMILES	Ki
CC(C)OCCNC(=O)C(C)n1cc(-c2ncnc3[nH]ccc23)cn1 (stereo not drawn) [Compound 85]	500 to 5000 nM
CC(C(=O)N1CCCC1)n1cc(-c2ncnc3[nH]ccc23)cn1 (stereo not drawn) [Compound 87]	100 to 500 nM
CC(C(=O)NCC(F)(F)F)n1cc(-c2ncnc3[nH]ccc23)cn1 (stereo not drawn) [Compound 91]	< 100 nM
CCCCC(CC)n1cc(-c2ncnc3[nH]ccc23)cn1 (stereo not drawn) [Compound 92]	< 100 nM
CCCCC(C)n1cc(-c2ncnc3[nH]ccc23)cn1 (stereo not drawn) [Compound 93]	< 100 nM
CCCC(CC)n1cc(-c2ncnc3[nH]ccc23)cn1 (stereo not drawn) [Compound 94, 4-(1-(hexan-3-yl)-1H-pyrazol-4-yl)-7H-pyrrolo[2,3-d]pyrimidine]	< 100 nM
O=C(CCC1CC1)Nc1nc(-c2ncnc3[nH]ccc23)cs1 [Compound 96]	< 100 nM
COC(C)C(=O)Nc1nc(-c2ncnc3[nH]ccc23)cs1 (stereo not drawn) [Compound 97]	100 to 500 nM
CCC(C)CC(=O)Nc1nc(-c2ncnc3[nH]ccc23)cs1 (stereo not drawn) [Compound 98]	< 100 nM
O=C(CCC(F)(F)F)Nc1nc(-c2ncnc3[nH]ccc23)cs1 [Compound 99]	< 100 nM
O=C(Nc1nc(-c2ncnc3[nH]ccc23)cs1)C(O)C(F)(F)F (stereo not drawn) [Compound 100]	< 100 nM
CC(CC(F)(F)F)C(=O)Nc1nc(-c2ncnc3[nH]ccc23)cs1 (stereo not drawn) [Compound 102]	< 100 nM
CCCN(C(=O)CC(C)C)c1nc(-c2ncnc3[nH]ccc23)cs1 [Compound 103, 3-Methyl-N-propyl-N-[4-(7H-pyrrolo[2,3-d]pyrimidin-4-yl)-thiazol-2-yl]-butyramide]	< 100 nM
CCN(C(=O)CC(C)C)c1nc(-c2ncnc3[nH]ccc23)cs1 [Compound 104]	< 100 nM
CC(C)CC(=O)N(C)c1nc(-c2ncnc3[nH]ccc23)cs1 [Compound 105]	< 100 nM
